Data taken from the supplement of paper PMC11208160.

test: recombinant barcode read abundance after kanamycin selection (control-corrected) (log10(CPM+1)); higher = more efficient recombination; sequences stand for … in AGTGCAGAGAAAATCGGCCAGTTTTCTCTGCCTGCAGTCCGCATGCCGT…AGATTTATGCAGCGGACTGCCTTTCTCCCAAAGTGATAAACCGGACAGTATCATGGACCGGTTTTCCCGGTAATCCGTATTTGCAAGGTTGGTTTCACT; site = the 11-nt target
Method: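 Pooled E. coli target-specificity screen for the IS621 bridge recombinase. Each library plasmid pairs an 11-nt target (CT core) with a bridge RNA whose target-binding loop (9-nt LTG + 4-nt RTG) is reprogrammed; the rest of the 177-nt WT IS621 bridge RNA scaffold is fixed. The plasmid is co-electroporated with a WT donor plasmid; recombinase is induced with 0.1 mM IPTG and recombinants are selected on kanamycin. Recombinant barcodes are sequenced, converted to CPM, averaged over two biological replicates and corrected by the unselected control CPM. Molecule = full bridge RNA written as DNA: LTG = specificity nt 1-9, RTG = reverse complement of specificity nt 8-11, in the WT scaffold.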
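Note: IS621 recombinase and bridge RNA in Escherichia coli cells.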

Row | Sequence | recombinant barcode read abundance (log10)
1 | ACGTATGCTTGGGTTCTAACCTGTTGCAT (site TAAATCACTCG) | 0.0674
2 | CTTGGTTCTTGGGTTCTAACCTGTTGCTT (site CTTGGTTCTAA) | 0.809
3 | ACCGAGTCTTGGGTTCTAACCTGTTGCCT (site ACCGAGTCTAG) | 1.85
4 | TAGGCCACTTGGGTTCTAACCTGTTGCGT (site TAGGCCACTAC) | 2.85
5 | TCCAAGGCTTGGGTTCTAACCTGTTGCCT (site TCGAAGGCTAG) | 0.147
6 | TTAGTACCTTGGGTTCTAACCTGTTGCCT (site TTAGTTCCTAG) | 0.369
7 | AACTTCCCTTGGGTTCTAACCTGTTGCCT (site AACTTCACTAG) | 0.0364
8 | TATCCGACTTGGGTTCTAACCTGTTGCCC (site TATCCGACTTG) | 0.125
9 | CACTTGACTTGGGTTCTAACCTGTTGCTT (site CACTTGACTAA) | 0.331
10 | TAGCCACCTTGGGTTCTAACCTGTTGCCT (site GAGCCACCTAG) | 0.0875
11 | GCTCTAGCTTGGGTTCTAACCTGTTGCTA (site GCTCTAGCTTA) | 0.515
12 | TCCCAGTCTTGGGTTCTAACCTGTTGCGT (site TCCCAGTCTAG) | 0.375
13 | CCGTATGCTTGGGTTCTAACCTGTTGCCT (site CCGTATGCTAG) | 0.168
14 | ACCAAATCTTGGGTTCTAACCTGTTGCTA (site ACCAAATCTCG) | 0.356
15 | CGATGGCCTTGGGTTCTAACCTGTTGCAT (site CGATGACCTAT) | 0.388
16 | GAGATTCCTTGGGTTCTAACCTGTTGCCT (site CAGATTCCTAG) | 0.0463
17 | GACGGACCTTGGGTTCTAACCTGTTGCTA (site GACGGACCTTA) | 1.26
18 | CTACAGCCTTGGGTTCTAACCTGTTGCTT (site CTACATCCTAA) | 0.0933
19 | CACTGGACTTGGGTTCTAACCTGTTGCCT (site CAATGGACTAG) | 0.155
20 | GTCTCATCTTGGGTTCTAACCTGTTGCAT (site AGTATCCCTCG) | 0.0153
21 | TAGTTAGCTTGGGTTCTAACCTGTTGCCA (site TAGTTAGCTCG) | 0.17

Row | Sequence | recombinant barcode read abundance (log10)
22 | GAGTGGCCTTGGGTTCTAACCTGTTGCGG (site GAGTAGCCTCC) | 0.831
23 | AGATTCGCTTGGGTTCTAACCTGTTGCCG (site AGATTCCCTCG) | 0.0487
24 | CCTGACTCTTGGGTTCTAACCTGTTGCAC (site GAACTGCCTAA) | 0.0359
25 | TTATAAGCTTGGGTTCTAACCTGTTGCCA (site GTATGAGCTTG) | 0.0336
26 | CGACTGACTTGGGTTCTAACCTGTTGCCT (site CGTCTGACTTG) | 0.0517
27 | CAGGTGCCTTGGGTTCTAACCTGTTGCCT (site CTGGTGCCTAG) | 0.526
28 | GAAGTCGCTTGGGTTCTAACCTGTTGCCT (site GAAGACGCTAG) | 0.187
29 | CACACAGCTTGGGTTCTAACCTGTTGCCT (site CACAAAGCTAG) | 0.082
30 | TCCAAGGCTTGGGTTCTAACCTGTTGCCT (site TCCAAGGCTAG) | 0.107
31 | GGCTATGCTTGGGTTCTAACCTGTTGCCT (site GACTATGCTAG) | 0.143
32 | CGACGTACTTGGGTTCTAACCTGTTGCCT (site CGCCGTACTAG) | 0.226
33 | AGCGGGCCTTGGGTTCTAACCTGTTGCCT (site AGCGGCCCTAG) | 1.08
34 | GTCCGGTCTTGGGTTCTAACCTGTTGCTT (site GTCGGGTCTAG) | 0.097
35 | TAGTGTCCTTGGGTTCTAACCTGTTGCCA (site TGGTGTGCTTG) | 0.142
36 | CACATTCCTTGGGTTCTAACCTGTTGCCT (site CACATTCCTAG) | 0.17
37 | TTACGCTCTTGGGTTCTAACCTGTTGCTA (site TTACGCTCTTA) | 0.621
38 | CAGTTAGCTTGGGTTCTAACCTGTTGCCT (site CAGTTCGCTAG) | 0.182
39 | GCGAACCCTTGGGTTCTAACCTGTTGCTT (site GCGAACCCTAA) | 1.47
40 | TGCGCGACTTGGGTTCTAACCTGTTGCCT (site TGCGCCACTAG) | 0.0885
41 | TGGGCGGCTTGGGTTCTAACCTGTTGCCT (site TAGGTGGCTAG) | 0.133
42 | GTCCGCTCTTGGGTTCTAACCTGTTGCCT (site CTCCGCTCTAG) | 0.823

Row | Sequence | recombinant barcode read abundance (log10)
43 | GATACGTCTTGGGTTCTAACCTGTTGCCT (site GATACGCCTAG) | 0.187
44 | TAGTGGTCTTGGGTTCTAACCTGTTGCAT (site TAGTGGTCTTA) | 0.215
45 | GTCGGTCCTTGGGTTCTAACCTGTTGCCG (site AGTTTAACTGT) | 0.0178
46 | AAGATCACTTGGGTTCTAACCTGTTGCGG (site AAGATCACTCC) | 2.36
47 | GGCCCCTCTTGGGTTCTAACCTGTTGCCG (site GGCCCCTCTCG) | 1.8
48 | AGACTGACTTGGGTTCTAACCTGTTGCGG (site AGACTGACTCC) | 2.18
49 | AACACGACTTGGGTTCTAACCTGTTGCCT (site AACACGACTAG) | 0.711
50 | GAAGGGACTTGGGTTCTAACCTGTTGCCT (site GTAGGGACTAG) | 1.52
51 | CGTCGACCTTGGGTTCTAACCTGTTGCCT (site TGTCGACCTAG) | 0.194
52 | TCCGTGACTTGGGTTCTAACCTGTTGCCT (site TCCGTGCCTAG) | 0
53 | GTAATAGCTTGGGTTCTAACCTGTTGCAT (site GTAATAGCTAT) | 2
54 | TAGGATGCTTGGGTTCTAACCTGTTGCGT (site TAGGATGCTAC) | 2.66
55 | TGTCGGACTTGGGTTCTAACCTGTTGCAG (site TGTCGGACTTT) | 0.041
56 | GAAGCCGCTTGGGTTCTAACCTGTTGCCT (site GAAGGCGCTAG) | 0.16
57 | GAAGAGCCTTGGGTTCTAACCTGTTGCCT (site GAAGAGCCTAG) | 2.62
58 | ACTACTACTTGGGTTCTAACCTGTTGCCT (site ATTACTACTAG) | 0.111
59 | TCGTGAGCTTGGGTTCTAACCTGTTGCTG (site GGTGACCCTAT) | 0.147
60 | GGAGGGACTTGGGTTCTAACCTGTTGCCT (site GCAGGGACTAG) | 0.658
61 | TCGTGCCCTTGGGTTCTAACCTGTTGCCT (site TCGTGCACTAG) | 0.0746
62 | AGATGGACTTGGGTTCTAACCTGTTGCAG (site AGATGGACTCT) | 2.52
63 | ACTCGCTCTTGGGTTCTAACCTGTTGCAC (site ACTCGCTCTGT) | 1.5

Row | Sequence | recombinant barcode read abundance (log10)
64 | GGTGCATCTTGGGTTCTAACCTGTTGCTT (site GGTGCATCTAA) | 0.0847
65 | GAGAGTCCTTGGGTTCTAACCTGTTGCCA (site ATTGAGACTAA) | 0.281
66 | CCTGGAACTTGGGTTCTAACCTGTTGCTT (site CCTGGAGCTAT) | 0.333
67 | CAGTTGGCTTGGGTTCTAACCTGTTGCCT (site CAGTTCGCTAG) | 0.0864
68 | CGTCAACCTTGGGTTCTAACCTGTTGCGT (site CGTAAACCTAC) | 0.186
69 | GCTCTAGCTTGGGTTCTAACCTGTTGCTA (site ACTCTAGCTGA) | 0.143
70 | ACTAGTCCTTGGGTTCTAACCTGTTGCTT (site ACTAGTCCTAT) | 0.316
71 | CAAAGTCCTTGGGTTCTAACCTGTTGCTT (site CAAAGTCCTAG) | 0.152
72 | GGGAACCCTTGGGTTCTAACCTGTTGCAT (site GGGAACCCTAT) | 1.96
73 | ACACACCCTTGGGTTCTAACCTGTTGCGG (site ACGCACGCTCC) | 0.0353
74 | GAGCAAACTTGGGTTCTAACCTGTTGCCT (site GATCAATCTAG) | 0.16
75 | CTACTAGCTTGGGTTCTAACCTGTTGCAC (site CTACTAGCTTT) | 0.727
76 | TAGCCACCTTGGGTTCTAACCTGTTGCCT (site TAGCCACCTAG) | 1.94
77 | GTGTACCCTTGGGTTCTAACCTGTTGCGC (site GTGTACCCTCC) | 0.141
78 | GTCGCCTCTTGGGTTCTAACCTGTTGCCT (site GTCGCCTCTAG) | 0.297
79 | CTTGGGTCTTGGGTTCTAACCTGTTGCAT (site CTTGGGTCTAT) | 2.72
80 | TTCGGGCCTTGGGTTCTAACCTGTTGCCT (site GTCGGGCCTAG) | 0.0582
81 | TCTTGGACTTGGGTTCTAACCTGTTGCTT (site TCTTGGACTGA) | 0.0999
82 | GACAGGACTTGGGTTCTAACCTGTTGCCT (site GACAGGACTAG) | 1.32
